Source: US10072016B2, “Substituted 4-phenylpiperidines, their preparation and use” (The Trustees of Columbia University in the City of New York, priority 2014, dated 2018)

What was measured:
RBP4 [1] = target: T1, RBP4 (Homo sapiens (Human), UniProt P02753); assay: Scintillation proximity (SPA) RBP4 binding assay; details: 10 nM 3H-Retinol, 50 nM biotinylated RBP4
Protocol: Scintillation Proximity RBP4 Binding Assay
Untagged human RBP4 purified from urine of tubular proteinuria patients was purchased from Fitzgerald Industries International. It was biotinylated using the EZ-Link Sulfo-NHS-LC-Biotinylation kit from Pierce following the manufacturer's recommendations. Binding experiments were performed in 96-well plates (OptiPlate, PerkinElmer) in a final assay volume of 100 μl per well in SPA buffer (1×PBS, pH 7.4, 1 mM EDTA, 0.1% BSA, 0.5% CHAPS). The reaction mix contained 10 nM ^3H-Retinol (48.7 Ci/mmol; PerkinElmer), 0.3 mg/well Streptavidin-PVT beads, 50 nM biotinylated RBP4 and a test compound. Nonspecific binding was determined in the presence of 20 μM of unlabeled retinol. The reaction mix was assembled in the dark under dim red light. The plates were sealed with clear tape (TopSeal-A: 96-well microplate, PerkinElmer), wrapped in the aluminum foil, and allowed to equilibrate 6 hours at room temperature followed by overnight incubation at +4° C. Radiocounts were measured using a TopCount NXT counter (Packard Instrument Company).

RBP4-TTR interaction [2] = target: T2, RBP4-TTR interaction (Homo sapiens (Human), UniProt P02753); assay: TR-FRET (HTRF) assay for retinol-induced RBP4-TTR interaction; assay type: biochemical; details: in the presence of 1 μM retinol; read-out: HTRF assay for antagonists of RBP4-TTR interaction: IC50
Excerpt: Binding of a desired RBP4 antagonist displaces retinol and induces hindrance for RBP4-TTR interaction resulting in the decreased FRET signal (FIG. 7). Bacterially expressed MBP-RBP4 and untagged TTR were used in this assay. […] Following cell lysis, recombinant RBP4 was purified from the soluble fraction using the ACTA FPLC system (GE Healthcare) equipped with the 5-ml the MBP Trap HP column. Human untagged TTR was purchased from Calbiochem. Untagged TTR was labeled directly with Eu^3+ Cryptate-NHS using the HTRF Cryptate Labeling kit from CisBio following the manufacturer's recommendations. HTRF assay was performed in white low volume 384 well plates (Greiner-Bio) in a final assay volume of 16 μl per well. The reaction buffer contained 10 mM Tris-HCl pH 7.5, 1 mM DTT, 0.05% NP-40, 0.05% Prionex, 6% glycerol, and 400 mM KF. […] Titration of test compounds in this assay was conducted in the presence of 1 μM retinol. All reactions were assembled in the dark under dim red light and incubated overnight at +4° C. wrapped in aluminum foil. TR-FRET signal was measured in the SpectraMax M5e Multimode Plate Reader (Molecular Device). […] The TR-FRET signal was expressed as the ratio of fluorescence intensity: Flu665/Flu620×10,000.

[3] = system: many cell types, including the retinal pigment epithelium cells; details: cited from earlier work
RBP4 [4] = target: T1, RBP4; details: cited from earlier work
RBP4-TTR interaction [5] = target: T2, RBP4-TTR interaction; details: cited from earlier work
serum RBP4 and retinol = serum RBP4 and retinol (Rattus norvegicus (Rat), UniProt P04916); details: in vivo; cited from earlier work
[6] = in vivo; cited from earlier work
Abca4−/− mice = details: animal model of excessive bisretinoid accumulation; cited from earlier work
[7] = system: ocular all-trans retinol uptake; details: in vivo; cited from earlier work

Row | SMILES | IC50 (RBP4 [1]) [nM] | IC50 (RBP4-TTR interaction [2]) [nM] | induction of apoptosis [3] | binding to RBP4 (RBP4 [4]) | displacement of all-trans retinol from RBP4 (RBP4 [4]) | disruption of RBP4-TTR interaction (RBP4-TTR interaction [5]) | serum RBP4 and retinol (serum RBP4 and retinol) | teratogenicity [6] | A2E production (Abca4−/− mice) | ocular all-trans retinol uptake and visual cycle [7]
1 | COCCN1CCc2c(C(=O)N3CCC(c4cccc(F)c4C(F)(F)F)CC3)n[nH]c2C1 [Compound 73] | 8.5 | 30.6 | – | – | – | – | – | – | – | –
2 | CC1=C(/C=C/C(C)=C/C=C/C(C)=C/C(=O)Nc2ccc(O)cc2)C(C)(C)CCC1 [fenretinide, N-(4-hydroxy-phenyl)retinamide] | – | – | extremely active inducer of apoptosis | bind to RBP4 | displace all-trans retinol from RBP4 | disrupt the RBP4-TTR interaction | reduce serum RBP4 and retinol | teratogenic | reduced A2E production | inhibit ocular all-trans retinol uptake and slow down the visual cycle
